A short description of experiment [1]: Dissociation constant determination of peptide-Tb^3+ complexes by Tb^3+ luminescence titration. Format: binding. The method, then:
(§1) All experiments were conducted on a Photon Technology International fluorescence spectrometer model QM-3/2003 with a CW source and a Hamamatsu R928PMT using 10 nm excitation and emission slit widths. A 495 nm highpass filter (model 495FG03-25 AM-53074; Andover Corporation) was used on the emission monochromator. Spectra were acquired at room temperature with a scan rate of 1 nm per second. In dissociation constant determinations, the observed luminescence (photon counts s^−1) was not background-corrected and represents the raw fluorescence data. In the presence of buffer only (no peptide, no metal), the luminescence at 544 nm is similar to the luminescence observed in the presence of peptide at the limit of low concentrations of Tb^3+ (approximately 1.8×10^5 photon counts s^−1). Spectral data (FIGS. 3a, […]) represent the average of at least three independent trials and correspond to the averaged spectra that yielded the data points at the given Tb^3+ concentrations in the dissociation constant determination plots. Spectral data in the manuscript were background-corrected. Peptide solutions were prepared by the dilution of peptide stock solutions into buffer containing 5 mM HEPES (pH 7.8) and 100 mM NaCl (final concentrations). Spectra were acquired in 10 mm quartz fluorescence cells (Starna). Tb^3+ titrations were conducted by dilution of a Tb^3+ solution into a peptide solution. All TbCl3 solutions were standardized by titration with a standard solution of EDTA (1 mM) in the presence of xylenol orange indicator (10 μM) and sodium acetate buffer (pH 6.0, 10 mM). EDTA (1 mM) was added to 500 μL of a 1 mM Tb^3+ solution diluted from a 10 mM stock until the end point was reached; Tb^3+ concentration was determined based on 1:1 binding. Each individual emission spectrum represents an independently prepared solution of peptide and metal. The Tb^3+ emission band at 544 nm was used to evaluate metal binding.
To determine dissociation constants for Tb^3+-peptide complexes, Tb^3+ titrations were conducted in solutions of 5 mM HEPES (pH 7.8) and 100 mM NaCl. Each data point represents an independently prepared solution of peptide and metal. Observed luminescence (photon counts s^−1) at the emission maximum of 544 nm were plotted against Tb^3+ concentration to calculate the final Kd. Data points indicate the average of at least three independent titrations. Error bars indicate standard error. […] The quadratic equation solution to the dissociation constant (equation 1) was employed to generate an accurate solution to the binding equilibrium under conditions when the dissociation constant, peptide concentration, and metal concentration may be similar. For phosphorylated pKID-pTyr11, the dissociation constant was also measured in the presence of 2 mM Mg^2+ and 100 μM Ca^2+ to study the effect of these metals on Tb^3+-peptide complex formation.

Experiment [2] is described as follows: Terbium luminescence spectra of non-phosphorylated versus phosphorylated peptides. The note with it: 10 μM peptide, 10 mM HEPES (pH 7.8), 100 mM NaCl, excitation 280 nm. The method, then: FIGS. 3a, 3e and 3f show the luminescence spectra of 10 μM non-phosphorylated (red) and phosphorylated (blue) (a) pKID-pTyr11, (e) pKID-pTyr15a, and (f) pKID-pTyr15b, in the presence of (a, f) 20 μM Tb^3+ or (e) 80 μM Tb^3+. Experiments were conducted in water with 10 mM HEPES (pH 7.8) and 100 mM NaCl with excitation at 280 nm. […] The fold luminescence differentiation between non-phosphorylated and phosphorylated peptides depends on the relative Tb^3+ affinities of the peptides and on the Tb^3+ concentration. FIGS. 3b, 3c, and 3d show the TOCSY spectra of phosphorylated pKID-pTyr11 in the absence (red) and presence (blue) of La^3+ indicating metal-induced peptide folding: (b) H^N—Hα region; (c) H^N—Hβ region; (d) aromatic region.
as §1, with “Peptide solutions were prepared by the dilution of peptide stock solutions into buffer containing 5 mM HEPES (pH 7.8) and 100 mM NaCl (final concentrations).” left out, “Tb^3+ titrations were conducted by dilution of a Tb^3+ solution into a peptide solution. All TbCl3 solutions were standardized by titration with a standard solution of EDTA (1 mM) in the presence of xylenol orange indicator (10 μM) and sodium acetate buffer (pH 6.0, 10 mM).” left out, “Each individual emission spectrum represents an independently prepared solution of peptide and metal. The Tb^3+ emission band at 544 nm was used to evaluate metal binding.” left out

Where [3] appears, read: 10 μM peptide, footnote a: calculated by defining maximum luminescence as equal to that of the phosphorylated peptide-Tb^3+ complex (no saturation).
[4] abbreviates: peptide-Tb^3+ complex, 10 μM peptide, 5 mM HEPES (pH 7.8), 100 mM NaCl.

“Ac-DKDGDGWISPAAAKYAK-NH2 [non-phosphorylated pKID-pTyr15b]”: in experiment [1] (setting [3]), the Kd was 1930 µM.

“Ac-DKDGDGWISPAAAKpYAK-NH2 [phosphorylated pKID-pTyr15b]”: binding in experiment [1] (setting [4]) was put at a Kd of 47 ± 5 µM. In experiment [2] (20 μM Tb^3+), the “fold greater luminescence of phosphorylated than non-phosphorylated peptide” value was 10.1 fold.

As to “Ac-DKNADGWIDAAAAKYAK-NH2 [non-phosphorylated pKID-pTyr15a]”, the Kd in experiment [1] (setting [3]) was 3200 µM.

In experiment [1] (setting [4]), “Ac-DKNADGWIDAAAAKpYAK-NH2 [phosphorylated pKID-pTyr15a]” displayed a Kd of 217 ± 21 µM. Moreover, the “fold greater luminescence of phosphorylated than non-phosphorylated peptide” value in experiment [2] (80 μM Tb^3+) came out at 17.6 fold.

Consider “Ac-DKNADGWIDAAYK-NH2 [non-phosphorylated pKID-pTyr12, control peptide with Tyr at residue 12]”, for which, in experiment [1] (setting [4]), binding was characterised by a dissociation constant (Kd) of 6470 µM.

In turn, “Ac-DKNADGWIDAApYK-NH2 [phosphorylated pKID-pTyr12]” gave a Kd in experiment [1] (setting [4]) of 209 ± 32 µM.

Regarding “Ac-DKNADGWIDAYAK-NH2 [non-phosphorylated pKID-pTyr11, model tyrosine kinase-inducible domain peptide, Tyr at residue 11]”, in experiment [1] (setting [4]), the Kd turned out to be 1900 ± 280 µM.

Take “Ac-DKNADGWIDApYAK-NH2 [phosphorylated pKID-pTyr11, pY indicates phosphotyrosine]”: the “Tb^3+ binding in the presence of competing metals” value in experiment [1] (in the presence of 100 μM Ca^2+ and 2 mM Mg^2+) is “identical”. Moreover, the Kd in experiment [1] (peptide-Tb^3+ complex, 2 μM peptide with 2 mM Mg^2+ and 100 μM Ca^2+) turned out to be 30 µM; in experiment [1] (peptide-Tb^3+ complex, 2 μM peptide, 5 mM HEPES (pH 7.8), 100 mM NaCl) it was 32 µM; in experiment [1] (setting [4]), 54 ± 9 µM. Besides, the “fold greater Tb^3+ affinity than the non-phosphorylated peptide” value in experiment [1] (phosphorylated versus non-phosphorylated peptide) amounted to 35 fold. The “fold greater luminescence of phosphorylated than non-phosphorylated peptide” value in experiment [2] (20 μM Tb^3+) was found to be 6.4 fold.

In experiment [1] (setting [4]), “DKNADGWIDAAEK [EF Hand-E12, EF Hand consensus peptide with Glu at residue 12, reference compound]” displayed a dissociation constant (Kd) of 88 ± 8 µM.

“DKNADGWIDAEAK [EF Control-E11, control peptide with Glu at residue 11, reference compound]” yielded a Kd in experiment [1] (setting [4]) of 1820 ± 140 µM.

By Kd is commonly meant the constant that tells how readily two partners part at equilibrium.

Values taken from patent US8551723B2, “Tyrosine kinase-inducible domains” (University of Delaware, priority 2010, dated 2013).
